Test results as given in ChEMBL document CHEMBL1201862, “PubChem BioAssay data set” (2004).
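Method: 48-hour compound exposure of cells in 96-well plates, five concentrations, linear interpolation of endpoints. The concentration for 50% growth inhibition is given as GI50.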 Activity calls are given as the source filed them. Cut-off read from the data, not from the text of the source: active = GI50 up to about 1.1 µM and inactive = higher.

What was measured:
Test in all cases: DTP human tumour cell line panel, 48 h
SNB-78 = test system: SNB-78
OVCAR-5 = test system: OVCAR-5
COLO 205 = test system: COLO 205
UACC-257 = test system: UACC-257
UACC-62 = test system: UACC-62
SNB-19 = test system: SNB-19
SR = test system: SR
TK-10 = test system: TK-10
786-0 = test system: 786-0
SNB-75 = test system: SNB-75
ACHN = test system: ACHN
IGROV-1 = test system: IGROV-1
CAKI-1 = test system: CAKI-1
HOP-62 = test system: HOP-62
OVCAR-4 = test system: OVCAR-4
HOP-92 = test system: HOP-92

Row | SMILES | GI50 (SNB-78) | GI50 (OVCAR-5) | GI50 (COLO 205) | GI50 (UACC-257) | GI50 (UACC-62) | GI50 (SNB-19) | GI50 (SR) | GI50 (TK-10) | GI50 (786-0) | GI50 (SNB-75) | GI50 (ACHN) | GI50 (IGROV-1) | GI50 (CAKI-1) | GI50 (HOP-62) | GI50 (OVCAR-4) | GI50 (HOP-92)
1 | Nc1ncnc2c1ncn2CCOC(c1ccccc1)P(=O)(O)O (centres undefined) | > 100 µM (inactive) | > 100 µM (inactive) | > 100 µM (inactive) | > 100 µM (inactive) | > 100 µM (inactive) | > 100 µM (inactive) | > 100 µM (inactive) | > 100 µM (inactive) | > 100 µM (inactive) | > 100 µM (inactive) | > 100 µM (inactive) | > 100 µM (inactive) | > 100 µM (inactive) | – | – | –
2 | O=C(O)/C(Cl)=C(\Cl)C(=O)NC1C2CC3CC(C2)CC1C3 (centres undefined) | > 100 µM (inactive) | > 100 µM (inactive) | > 100 µM (inactive) | > 100 µM (inactive) | > 100 µM (inactive) | > 100 µM (inactive) | > 100 µM (inactive) | – | > 100 µM (inactive) | > 100 µM (inactive) | > 100 µM (inactive) | > 100 µM (inactive) | > 100 µM (inactive) | > 100 µM (inactive) | > 100 µM (inactive) | > 100 µM (inactive)
3 | O=C(N/C(=C\c1cccc([N+](=O)[O-])c1)c1nc2ccccc2[nH]1)c1ccccc1 | 44.6 µM (inactive) | 63.4 µM (inactive) | 93.1 µM (inactive) | > 100 µM (inactive) | 88.1 µM (inactive) | 61.2 µM (inactive) | 37.3 µM (inactive) | – | 55.2 µM (inactive) | 36.4 µM (inactive) | 51.4 µM (inactive) | 91.4 µM (inactive) | 59.4 µM (inactive) | 42.8 µM (inactive) | > 100 µM (inactive) | 40.6 µM (inactive)
4 | CC(=O)Nc1ccc(-c2nnc(SCC(=O)Nc3ccc([N+](=O)[O-])cc3)o2)cc1 | 16.1 µM (inactive) | 19.8 µM (inactive) | 14.2 µM (inactive) | 12.1 µM (inactive) | 9.84 µM (inactive) | – | 3.18 µM (inactive) | 14.6 µM (inactive) | 11.3 µM (inactive) | 13.2 µM (inactive) | 15.4 µM (inactive) | 11 µM (inactive) | 14.3 µM (inactive) | 26.3 µM (inactive) | 13.4 µM (inactive) | 22.9 µM (inactive)
5 | CCc1ccc(/C(C)=N/NC(N)=S)cc1 | > 100 µM (inactive) | 13.1 µM (inactive) | > 100 µM (inactive) | – | 31.8 µM (inactive) | > 100 µM (inactive) | > 100 µM (inactive) | > 100 µM (inactive) | > 100 µM (inactive) | – | – | > 100 µM (inactive) | 70 µM (inactive) | > 100 µM (inactive) | 37.6 µM (inactive) | > 100 µM (inactive)
6 | Cc1ccc(C2=C(c3ccc(C)cc3)C(c3ccc(C)cc3)=C(c3ccc(C)cc3)C2=O)cc1 | > 100 µM (inactive) | > 100 µM (inactive) | – | > 100 µM (inactive) | – | > 100 µM (inactive) | > 100 µM (inactive) | > 100 µM (inactive) | > 100 µM (inactive) | > 100 µM (inactive) | > 100 µM (inactive) | > 100 µM (inactive) | – | > 100 µM (inactive) | – | –
7 | CCOc1ccc2[nH]c3c(C)c4ccncc4c(C)c3c2c1 | 1.34 µM (inactive) | 1.58 µM (inactive) | 1.21 µM (inactive) | 1.75 µM (inactive) | – | 1.45 µM (inactive) | 0.37 µM (active) | 2.12 µM (inactive) | 1.03 µM (active) | 1.71 µM (inactive) | 1.07 µM (active) | 1.16 µM (inactive) | 1.69 µM (inactive) | 1.08 µM (active) | 1.41 µM (inactive) | 1.45 µM (inactive)
8 | COC(=O)c1nc(-c2ccc(Cl)c(Cl)c2)nc2ccc(Cl)cc12 | 6.59 µM (inactive) | 27.4 µM (inactive) | > 100 µM (inactive) | > 100 µM (inactive) | 87.3 µM (inactive) | 44.1 µM (inactive) | > 100 µM (inactive) | 44 µM (inactive) | 27.5 µM (inactive) | 19.6 µM (inactive) | 44.6 µM (inactive) | 94.4 µM (inactive) | > 10 µM (inactive) | – | – | 10.8 µM (inactive)
9 | CCc1cccc(C)c1N1C(=O)C(=O)C(c2nc3ccccc3o2)/C(=N/NC(=S)NN)C1=O (centres undefined) | > 100 µM (inactive) | > 100 µM (inactive) | > 100 µM (inactive) | > 100 µM (inactive) | > 100 µM (inactive) | > 100 µM (inactive) | – | > 100 µM (inactive) | > 100 µM (inactive) | > 100 µM (inactive) | > 100 µM (inactive) | > 100 µM (inactive) | > 100 µM (inactive) | > 100 µM (inactive) | > 100 µM (inactive) | > 100 µM (inactive)
10 | C[Si](C)(C)/C=C\CCO | > 100 µM (inactive) | > 100 µM (inactive) | > 100 µM (inactive) | > 100 µM (inactive) | > 100 µM (inactive) | > 100 µM (inactive) | > 100 µM (inactive) | > 100 µM (inactive) | > 100 µM (inactive) | > 100 µM (inactive) | > 100 µM (inactive) | > 100 µM (inactive) | – | – | – | > 100 µM (inactive)
